Like-named read-outs stand apart in the source and are kept apart here.
Tests used:
[1] = system: maximal electroshock seizure (MES); assay: Maximal electroshock seizure (MES) test in mice; settings: Mus musculus, ip; for responders at 30 mg/kg / responders at 100 mg/kg / responders at 300 mg/kg: read-out: MES, number of mice protected/number of mice tested
hCA IV = molecular target: T1, hCA IV (Homo sapiens, UniProt P22748); assay: Stopped flow CO2 hydrase assay, hCA IV; format: biochemical; settings: mean from 3 assays; for Ki: read-out: K1, hCA IV
T1 construct: made in house
T1 sequence (P22748 19-284): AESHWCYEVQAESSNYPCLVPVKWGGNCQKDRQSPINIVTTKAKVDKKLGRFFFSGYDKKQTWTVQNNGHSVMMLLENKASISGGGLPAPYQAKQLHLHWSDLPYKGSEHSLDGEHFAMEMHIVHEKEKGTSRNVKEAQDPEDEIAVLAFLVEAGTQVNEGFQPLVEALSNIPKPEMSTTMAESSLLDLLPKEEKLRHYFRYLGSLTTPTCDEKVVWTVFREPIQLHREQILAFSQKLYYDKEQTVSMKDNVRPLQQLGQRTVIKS
Method: (§1) An Applied Photophysics stopped-flow instrument has been used for assaying the CA catalysed CO2 hydration activity. Phenol red (at a concentration of 0.2 mM) has been used as indicator, working at the absorbance maximum of 557 nm, with 20 mM Hepes (pH 7.5) as buffer, and 20 mM Na2SO4 (for maintaining constant the ionic strength), following the initial rates of the CA-catalyzed CO2 hydration reaction for a period of 10-100 s. The CO2 concentrations ranged from 1.7 to 17 mM for the determination of the kinetic parameters and inhibition constants. […] The uncatalyzed rates were determined in the same manner and subtracted from the total observed rates. Stock solutions of inhibitor (0.1 mM) were prepared in distilled-deionized water and dilutions up to 0.01 nM were done thereafter with the assay buffer. […] The inhibition constants were obtained by non-linear least-squares methods using PRISM 3 and the Cheng-Prusoff equation, as reported earlier and represent the mean from at least three different determinations. All CA isofoms were recombinant ones obtained in-house.

hCA I = molecular target: T2, hCA I (Homo sapiens, UniProt P00915); assay: Stopped flow CO2 hydrase assay, hCA I; format: biochemical; settings: mean from 3 assays, read-out: K1, hCAI
T2 construct: made in house
T2 sequence (P00915 whole entry): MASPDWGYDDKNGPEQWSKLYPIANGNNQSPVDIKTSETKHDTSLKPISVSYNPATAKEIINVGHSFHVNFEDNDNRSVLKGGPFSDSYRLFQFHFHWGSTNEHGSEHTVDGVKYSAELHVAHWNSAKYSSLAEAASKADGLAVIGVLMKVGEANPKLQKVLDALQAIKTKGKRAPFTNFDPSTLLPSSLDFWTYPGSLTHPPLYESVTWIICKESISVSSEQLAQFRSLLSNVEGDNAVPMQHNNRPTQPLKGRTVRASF
Method: as §1

hCA II = molecular target: T3, hCA II (Homo sapiens, UniProt P00918); assay: Stopped flow CO2 hydrase assay, hCA II; format: biochemical; settings: mean from 3 assays, read-out: K1, hCA II
T3 construct: made in house
Method: as §1

mice = assay: Neurotoxicity (minimal motor impairment, rotarod) in mice; settings: mice i.p.
6 Hz psychomotor seizure = 6 Hz psychomotor seizure test in mice; settings: Mus musculus, ip, read-out: 6 Hz, number of mice protected/number of mice tested
hCA VII = molecular target: T4, hCA VII (Homo sapiens, UniProt P43166); assay: Stopped flow CO2 hydrase assay, hCA VII; format: biochemical; settings: mean from 3 assays, read-out: K1, hCA VII
T4 construct: made in house
T4 sequence (P43166 whole entry): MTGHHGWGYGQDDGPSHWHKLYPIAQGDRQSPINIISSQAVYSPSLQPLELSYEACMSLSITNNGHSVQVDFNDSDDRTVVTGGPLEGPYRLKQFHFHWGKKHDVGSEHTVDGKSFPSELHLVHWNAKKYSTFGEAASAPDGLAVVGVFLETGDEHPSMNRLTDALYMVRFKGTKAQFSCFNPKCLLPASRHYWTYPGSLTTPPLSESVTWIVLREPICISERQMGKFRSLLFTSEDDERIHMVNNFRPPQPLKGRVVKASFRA
Method: as §1

[2] = system: maximal electroshock seizure (MES); assay: Maximal electroshock seizure (MES) test in rats; settings: Rattus norvegicus, po, read-out: MES-ED50, rats, p.o.

Row | Ki (hCA IV) [nM] | Ki (hCA I) [nM] | Ki (hCA II) [nM] | melting point [°C] | SMILES | responders at 30 mg/kg ([1]; 0.5 h) [%] | responders at 100 mg/kg ([1]; 0.5 h) [%] | responders at 300 mg/kg ([1]; 0.5 h) [%] | responders at 30 mg/kg ([1]; 2 h) [%] | responders at 100 mg/kg ([1]; 2 h) [%] | responders at 300 mg/kg ([1]; 2 h) [%] | Tox (motor impairment or sedation), number of animals affected/number of animals tested (mice; 30 mg/kg, 0.5 h) | Tox (motor impairment or sedation), number of animals affected/number of animals tested (mice; 30 mg/kg, 2.0 h) | Tox (motor impairment or sedation), number of animals affected/number of animals tested (mice; 100 mg/kg, 0.5 h) | Tox (motor impairment or sedation), number of animals affected/number of animals tested (mice; 100 mg/kg, 2.0 h) | Tox (motor impairment or sedation), number of animals affected/number of animals tested (mice; 300 mg/kg, 0.5 h) | Tox (motor impairment or sedation), number of animals affected/number of animals tested (mice; 300 mg/kg, 2.0 h) | responders at 30 mg/kg (6 Hz psychomotor seizure; 0.5 h) [%] | responders at 100 mg/kg (6 Hz psychomotor seizure; 0.5 h) [%] | responders at 300 mg/kg (6 Hz psychomotor seizure; 0.5 h) [%] | responders at 30 mg/kg (6 Hz psychomotor seizure; 2 h) [%] | other results
1 | 303 | 5.9 | 0.6 | 212 to 213 | NS(=O)(=O)c1ccc(NC(=O)OCCc2ccccc2)cc1 [Compound 5, phenethyl (4-sulfamoylphenyl)carbamate] | 0 | 0 | 0 | 25 | 25 | 50 | 0/8 | 0/8 | 0/8 | 0/8 | 0/8 | 0/8 | 0 | 0 | 0 | 0 | K1, hCA IV (hCA IV): medium potency inhibitors; responders at 100 mg/kg (6 Hz psychomotor seizure; 2 h): 0%; responders at 300 mg/kg (6 Hz psychomotor seizure; 2 h): 0%; Ki (hCA VII): 24.5 nM
2 | 1840 | 59.5 | 4.5 | 170 to 173 | CC(C)(C)CCOC(=O)Nc1ccc(S(N)(=O)=O)cc1 [Compound 4, 3,3-dimethylbutyl (4-sulfamoylphenyl)carbamate] | 0 | 0 | 25 | 0 | 0 | 25 | 0/8 | 0/8 | 0/8 | 0/8 | 0/8 | 0/8 | 0 | 0 | 0 | 0 | responders at 100 mg/kg (6 Hz psychomotor seizure; 2 h): 0%; responders at 300 mg/kg (6 Hz psychomotor seizure; 2 h): 0%; Ki (hCA VII): 44.4 nM
3 | 2760 | 83.5 | 5 | 199 to 201 | CC(COC(=O)Nc1ccc(S(N)(=O)=O)cc1)CC(C)(C)C (stereo not shown) [Compound 7, 2,4,4-trimethylpentyl (4-sulfamoylphenyl)carbamate] | 0 | 0 | 0 | 0 | 25 | 50 | 0/8 | 0/8 | 0/8 | 0/8 | 0/8 | 0/8 | 25 | 25 | 100 | 0 | responders at 100 mg/kg (6 Hz psychomotor seizure; 2 h): 50%; responders at 300 mg/kg (6 Hz psychomotor seizure; 2 h): 75%; Ki (hCA VII): 712 nM
4 | – | – | – | 190 to 191 | CCC(C)OC(=O)Nc1ccc(S(N)(=O)=O)cc1 (stereo not shown) [Compound 11, sec-butyl(4-sulfamoylphenyl)carbamate] | – | – | – | – | – | – | – | – | – | – | – | – | – | – | – | – | ED50 [2]: 25 mg/kg; ED50 ([1]; read-out: MES-ED50, mice, i.p.): 75 mg/kg
5 | 1690 | 169 | 5.2 | 162 to 165 | CCC(CC)COC(=O)Nc1ccc(S(N)(=O)=O)cc1 [Compound 6, 2-ethylbutyl (4-sulfamoylphenyl)carbamate] | 0 | 0 | 0 | 0 | 0 | 0 | 0/8 | 0/8 | 0/8 | 0/8 | 0/8 | 0/8 | 0 | 25 | 25 | 0 | responders at 100 mg/kg (6 Hz psychomotor seizure; 2 h): 0%; responders at 300 mg/kg (6 Hz psychomotor seizure; 2 h): 25%; Ki (hCA VII): 52 nM
6 | > 10000 | 485 | 19.6 | 176 to 177 | CCCC(CCC)COC(=O)Nc1ccc(S(N)(=O)=O)cc1 [Compound 3, 2-propylpentyl (4-sulfamoylphenyl)carbamate] | 0 | 0 | 0 | 0 | 0 | 0 | 0/8 | 0/8 | 0/8 | 0/8 | 0/8 | 0/8 | 0 | 0 | 25 | 0 | responders at 100 mg/kg (6 Hz psychomotor seizure; 2 h): 0%; responders at 300 mg/kg (6 Hz psychomotor seizure; 2 h): 0%; Ki (hCA VII): > 10000 nM
7 | 452 | 21 | 3.7 | 193 to 194 | CC(C)C(OC(=O)Nc1ccc(S(N)(=O)=O)cc1)C(C)C [Compound 8, 2,4-dimethylpentan-3-yl (4-sulfamoylphenyl)carbamate] | 0 | 0 | 25 | 50 | 100 | 100 | 0/8 | 0/8 | 0/8 | 0/8 | 1/8 | 0/8 | 0 | 0 | 50 | 0 | K1, hCA IV (hCA IV): medium potency inhibitors; responders at 100 mg/kg (6 Hz psychomotor seizure; 2 h): 0%; responders at 300 mg/kg (6 Hz psychomotor seizure; 2 h): 25%; Ki (hCA VII): 35.4 nM
8 | > 10000 | 421 | 8.7 | 192 to 195 | CCCCC(CC)COC(=O)Nc1ccc(S(N)(=O)=O)cc1 (stereo not shown) [Compound 2, 2-ethylhexyl (4-sulfamoylphenyl)carbamate] | 0 | 25 | 25 | 0 | 0 | 25 | 0/8 | 0/8 | 0/8 | 0/8 | 0/8 | 0/8 | 0 | 75 | 50 | 0 | responders at 100 mg/kg (6 Hz psychomotor seizure; 2 h): 0%; responders at 300 mg/kg (6 Hz psychomotor seizure; 2 h): 25%; Ki (hCA VII): > 10000 nM

Reference: patent publication US20180339963A1, “ANTICONVULSANT CARBAMATE DERIVATIVES” (Yissum Research Development Company of the Hebrew …, priority 2017, published 2018)
